Where a name gives a salt, the structure may show the parent alone. Numbered stars: 1 amine (or outer) side, 2 acyl side, 3 side chain; on linkers, the order of the positions; unused ones are H or OH. Peptide text beside a SMILES is read from it. * marks the point of attachment. pNA = O=[N+]([O-])c1ccc(N*)cc1; Suc = O=C(CCC(=O)[*:2])[*:1]; Cbz = O=C(OCc1ccccc1)*
Columns and labels:
Assay type in all cases: biochemical, Fervidobacterium pennavorans
[1] = system: proteolytic activity of raw extract of strain W; experiment: Influence of metal ions on the proteolytic activity of the raw extract; conditions: 1 h room temperature with raw extract, then 1 h at 80° C. with 0.25 % substrate pH 10; for ca. % activity 1 mM: metal ion 1 mM; for ca. % activity 5 mM: metal ion 5 mM
Protocol: Cells of a fermenter culture are macerated (approximately 1 g/20 ml Na-phosphate 50 mM pH 6.8 buffer) by ultrasound. (15 min, 50 %, stage (setting) 6-7, average sonication peak, Branson Sonifier). After microscopic control of successful maceration the raw extract is centrifuged for 20 min, 4° C., 35,000 xg. The supernatant obtained in this manner is used for the enzyme tests.
(§1) 0.45 ml 0.25 % (w/v) casein solution (Hammersten Quality) in an appropriate B & R buffer (Britton & Robinson, J. Chem. Soc. (1931), p. 1456. A solution containing 0.4 M H3 PO4, 0.4M CH3 COOH and 0.4M H3 BO3 in water is adjusted to the desired pH with 0.2 N NaOH) is pipetted on ice with 0.05 ml enzyme-containing specimen into E-Cups and incubated, depending on the activity, up to 60 min at the optimal temperature for the enzyme (80° C.) and the optimal pH (10). The batch is then compounded for stopping off and precipitating the proteins with 0.5 ml 10 % (w/v) trichloroacetic acid (TCA), incubated for 15-30 min at room temperature and then centrifuged for 10 min at 13000 rpms in an Eppendorf centrifuge (Heraeus Sepatech, Osterode). The extinction of the clear supernatant is measured at 280 nm in a quartz cuvette against a non-incubated blank reading.
(§2) In order to determine the enzyme activity, a tyrosine calibration curve is recorded in the range of 0-1 μM/batch. An enzyme activity (1 unit) is defined as that amount which released 1 μmole aromatic amino acids/min. The following computation results from the rise of the calibration curve: [formula] Production of the enzyme composition
The metal ions are dissolved in a buffer, 50 mM Na--P; pH 6.8. 50 μl of this solution are incubated with 50 μl raw extract for 1 h at room temperature, then 400 μl substrate (0.25 %, pH 10) are added and incubated for 1 h at 80° C. TCA precipitation and determination of activity are carried out as described above.

[2] = system: proteases of cell-free raw extract of strain W; experiment: Hydrolysis of chromogenic peptide substrates by the proteases (E405 value); conditions: 17 hours at 60° C., 0.2 mM substrate in phosphate buffer pH 7, 0.3 mg/ml raw enzyme extract, measuring stretch 1 cm
Protocol: The hydrolysis of chromogenic peptide substrates by proteases of the […] (E405 value)
In order to determine the substrate specificity of the proteases the cited chromogenic peptide substrates are incubated in a final concentration of 0.2 mM together with cell-free raw extract.
The incubation takes place below the temperature optimum and pH optimum of the proteases in order to avoid a thermal and pH-dependent, non-enzymatic hydrolysis of the peptide substrates.
900 μl 0.2 mM (w/v) substrate solution in 50 mM Na-P-buffer, pH 7.0
100 μl enzyme specimen incubation for 17 h at 60° C.
The released p-nitroaniline is subsequently measured immediately against a non-incubated blank reading at an extinction of 405 nm.

[3] = target: T1, proteases of the enzyme composition from microorganism strain W (Fervidobacterium pennivorans, UniProt Q93LQ6); experiment: biochemical; conditions: for remaining activity at 1000 µM / remaining activity at 5000 µM: 1 h; for remaining activity at 1000 µM: pH 10, read-out: Residual act. (1 mM); for remaining activity at 5000 µM: pH 10, read-out: Residual act. (5 mM); for Residual act. (1 mM): inhibitor 1 mM
T1 construct: casein substrate, pH 10, 80 C
T1 sequence (Q93LQ6 150-699): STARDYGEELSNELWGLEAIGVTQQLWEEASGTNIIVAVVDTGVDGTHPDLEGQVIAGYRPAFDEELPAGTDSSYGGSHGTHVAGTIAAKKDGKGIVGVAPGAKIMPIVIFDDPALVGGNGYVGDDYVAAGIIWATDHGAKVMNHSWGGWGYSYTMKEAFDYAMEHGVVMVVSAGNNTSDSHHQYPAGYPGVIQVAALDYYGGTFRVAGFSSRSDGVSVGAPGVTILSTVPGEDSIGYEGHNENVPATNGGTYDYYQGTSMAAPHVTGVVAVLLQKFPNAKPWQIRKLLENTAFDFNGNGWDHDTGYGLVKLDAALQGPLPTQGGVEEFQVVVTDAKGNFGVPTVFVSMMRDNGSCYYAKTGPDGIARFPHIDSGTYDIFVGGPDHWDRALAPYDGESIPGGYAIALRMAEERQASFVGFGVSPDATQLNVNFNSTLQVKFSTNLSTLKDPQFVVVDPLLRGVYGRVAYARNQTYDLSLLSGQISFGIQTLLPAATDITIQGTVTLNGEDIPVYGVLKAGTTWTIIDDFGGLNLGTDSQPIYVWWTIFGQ
Protocol: as §1, §2
Phenylmethylsulfonyl fluoride (PMSF) and diisopropylfluorophosphate (DFP) bond to the OH group of the serine in the active center of serine proteases and inhibit the latter irreversibly. Ethylene diamine tetraacetate Na2 salt (EDTA) is a metal chelating agent and inhibits metalloproteases.
470 μl 0.25 % (w/v) casein in […], pH 10--buffer (B & R)
5 μl inhibitor stock [strain]solution (see below)
When using 5 μl inhibitor stock solution the final concentration corresponds to 1 mM. When using 25 μl inhibitor solution (final concentration 5 mM), only 450 μl substrate solution are accordingly used. The batches are at first incubated without substrate at room temperature (1 h) and then with substrate for 1 h at the temperature which is optimum for the enzyme.
After the incubation the reaction is stopped with 500 μl of a 10 % (w/v) solution of trichloroacetic acid and the remaining activity determined as described above. The following inhibitor solutions are used:
PMSF 17.3 % (w/v) in ethanol
EDTA 3.56 % (w/v) in H2 O bidistillate
Iodoacetate 14.4 % (w.v) in H2 O bidistillate

[4] = 1 h preincubation at room temperature, then 1 h with casein, pH 10, optimum temperature, without inhibitor = 100%, approximate values

Compound | ca. % activity 1 mM [1] [%] | ca. % activity 5 mM [1] [%] | other results
[Cl][Fe][Cl] [FeCl2] | 127 | 0 | –
NCCCC[C@H](NC(=O)c1ccccc1)C(=O)Nc1ccc([N+](=O)[O-])cc1 [benzoyl-Lys-pNA] | – | – | E405 value (in comparison to blank value) [2]: below 0.1
[Cl-].[Na+] [NaCl] | 86 | 116 | –
O=C(O)CI [Iodoacetate] | – | – | remaining activity at 1000 µM [3]: 83%; remaining activity at 5000 µM [3]: 76%
CC(=O)N[C@@H](Cc1ccc(O)cc1)C(=O)Nc1ccc([N+](=O)[O-])cc1 [acetyl-Tyr-pNA] | – | – | E405 value (in comparison to blank value) [2]: below 0.1
[Na+].[Na+].[O]=[W](=[O])([O-])[O-] [NaWO4] | 75 | 134 | –
O=C(NCC(=O)N1CCC[C@H]1C(=O)Nc1ccc([N+](=O)[O-])cc1)OCc1ccccc1 [Z-Gly-Pro-pNA] (Cbz-Gly-Pro-pNA) | – | – | E405 value (in comparison to blank value) [2]: below 0.1
[Ca+2].[Cl-].[Cl-] [CaCl2] | 85 | 117 | –
[Cl][Cu][Cl] [CuCl2] | 17 | 0 | –
O=S(=O)([O-])[O-].[O]=[V+2] [VOSO4] | 87 | 44 | –
O=[Se]([O-])[O-].[Na+].[Na+] [NaSe2 O3] | 96 | 136 | –
[Cl][Mn][Cl] [MnCl2] | 110 | 120 | –
AgCl2 | 0 | 0 | –
[Cl-].[Cl-].[Co+2] [CoCl2] | 143 | 187 | –
O=S(=O)(F)Cc1ccccc1 [PMSF, Phenylmethylsulfonyl fluoride] | – | – | Residual act. (1 mM) [3, 4]: 14%; Residual act. (5 mM) ([3]; inhibitor 5 mM, 1 h preincubation at room temperature, then 1 h with casein, pH 10, optimum temperature, without inhibitor = 100%, approximate values): 10%
[Cl][Fe]([Cl])[Cl] [FeCl3] | 93 | 0 | –
O=C(O)CCC(=O)N[C@@H](Cc1ccccc1)C(=O)Nc1ccc([N+](=O)[O-])cc1 [N-succinyl-Phe-pNA] | – | – | E405 value (in comparison to blank value) [2]: > 0.5
N=C(N)NCCCC(NC(=O)c1ccccc1)C(=O)Nc1ccc([N+](=O)[O-])cc1 (racemic) [benzoyl-DL-Arg-pNA] | – | – | E405 value (in comparison to blank value) [2]: below 0.1
C[C@H](NC(=O)CCC(=O)O)C(=O)N[C@@H](C)C(=O)N1CCC[C@H]1C(=O)N[C@@H](Cc1ccccc1)C(=O)Nc1ccc([N+](=O)[O-])cc1 [N-succinyl-Ala-Ala-Pro-Phe-pNA] (Suc-AAPF-pNA) | – | – | E405 value (in comparison to blank value) [2]: > 0.5
NCCc1ccc(S(=O)(=O)F)cc1 [Pefabloc SC] | – | – | Residual act. (1 mM) [3, 4]: 83%
[Cl-].[Cl-].[Zn+2] [ZnCl2] | 57 | 37 | –
[Na+].[Na+].[O]=[Mo](=[O])([O-])[O-] [NcMoO4] | 91 | 95 | –
[Cl][Ni][Cl] [NiCl2] | 72 | 44 | –
O=C(O)CN(CCN(CC(=O)O)CC(=O)O)CC(=O)O [EDTA, Ethylene diamine tetraacetate Na2 salt] | – | – | remaining activity at 1000 µM [3]: 93%; remaining activity at 5000 µM [3]: 85%
[Cl-].[Cl-].[Mg+2] [MgCl2] | 171 | 125 | –
